Source: US11396523B2, “Proton activated atomic medicine” (priority 2017, dated 2022)

Experiments:
[1] = system: glioblastoma cell line U87-MG; assay: in vitro colony assay (survival fraction) after proton beam irradiation; conditions: for cytotoxicity / cell kill compared to the proton beam treatment alone: 8 Gye single fraction protons plus compound, U87 cells exposed 96 hours before irradiation
Protocol: FIG. 1 is a graphic representation of the dose of irradiation (x-axis) versus the log survival fraction (y-axis) of log phase U87 human glioblastoma cells. Three groups were used. […] This molecule is synthesized by replacing the 2 position of the aromatic ring of the nitrogenous base with oxygen-18. When these cells are treated with protons, there is a chemical transmutation at the atomic level where upon the oxygen-18 atom is changed into radioactive fluorine-18.
Physiologic serum concentrations in normal and cancer patients the physiologic serum concentration is ˜0.3-1.2 μM. The cells were irradiated with 2 and 8 Gye with 160 MeV protons single fraction and cell death/survival was determined using a colony assay and calculation of survival fraction.

[2] = large doses, human cancer patients; cited from earlier work

Compound | increased cell kill ([1]; 0.5 microgram HTd exposed for 96 hours in vitro, 8 Gye single fraction protons, versus protons alone (FIG. 1)) | cytotoxicity / cell kill compared to the proton beam treatment alone [1] | cytotoxicity / cell kill compared to the proton beam treatment alone ([1]; listed as heavy thymidine) | radiation sensitization ([1]; plus a single dose of 8 Gye of protons) | effect on cell survival ([1]; same concentration X time exposure (0.5, 96 hours) plus 8 Gye protons) | concentrations in the serum achieved [2]
C2-^18O-Thymidine [2-HTd] | about half a log | increased cytotoxicity | greater cell kill | proton specific radiation sensitization | – | –
Cc1cn([C@H]2C[C@H](O)[C@@H](CO)O2)c(=O)[nH]c1=O [Thymidine, reference compound] | – | – | – | – | no effect | milli-molar range
